The test system of one data set is Alphafetoprotein (AFP). The data set can be described thus: AFP ELISA assay in MHCC97H cells. The data set is classed as cell-based, human. Conditions: 1.3 μM, 72 hours, vs vehicle control. Here is the method:
(§1) MHCC97H cells were seeded at a density of 500,000 cells/2 mL/well on a 6 well culture plate and incubated overnight at 37° C. in a humidified CO2 incubator. Cells were then treated with 1.3 μM milciclib or vehicle in DMEM/F12+2% FBS for 72 hours. Subsequently, cells were lysed in RIPA buffer, the supernatant was collected and used to perform ELISA assay as per the manufacturer's instructions. In orthotopic HCC mouse model, levels of serum marker alpha-fetoprotein (AFP) were determined on day 0, 6, 12, 18, 24, 30, 36, 42 and 48 using High Range AFP kit as per manufacturer's instructions.
A general note: An ELISA detects its analyte on a solid surface through an enzyme-linked reagent.

For a further data set, the system named is miR-221 and miR-222. The data set can be described thus: miRNA isolation and expression analysis of tumor tissues. Type of data set: in vivo. The conditions noted are these: tumor tissues from orally treated mice, vs vehicle. As for the experimental part:
miRNA from athymic nude mice following treatment with vehicle, milciclib, sorafenib, or milciclib+sorafenib was isolated from Total RNA using the TaqMan Advanced miRNA cDNA Synthesis Kit (Thermo Fisher Scientific, Rockford, Ill.) according to the manufacturer's instructions. miRNA-221 and miR-222 quantifications were performed in duplicates using TaqMan Advanced miRNA Assay (Thermo Fisher Scientific, Rockford, Ill.) with a sample dilution of 1:10. The PCR mixture was incubated at 95° C. for 20 seconds, followed by 40 cycles of 95° C. for 3 seconds and 60° C. for 30 seconds. Results were normalized to hsa-miR-192-5p as reference miRNA and the relative gene expression calculated as 2−ΔCT was expressed as fold increase over control samples.
Tumor tissues from mice treated with vehicle, sorafenib, milciclib, milciclib+sorafenib and normal liver tissues from naïve untreated mice were collected and levels of miR-221 and miR-222 were determined. The levels of both of miR-221 and miR-222 were elevated in tumors from vehicle treated mice.

A further data set deals with MHCC97L cells. The data set can be described thus: Wound healing assay. The conditions noted are these: scratched monolayer of MHCC97L cells, 96 hours, vs vehicle control. The data set is classed as cell-based, human. As for the experimental part: (§2) Cells were seeded at a density of 500,000 cells/2 mL/well on to a collagen-coated 6-well culture plate and incubated overnight in a humidified CO2 incubator at 37° C. to form a uniform monolayer. The monolayer was then scratched in a straight line with a new 10 μL pipette tip across the center of the well. After scratching, cells were washed with sterile PBS once to remove detached cells. Subsequently, wells were replenished with fresh DMEM/F12 containing 2% FBS and the test article either alone or in combination with milciclib. […] Images were analyzed using SlideBook™ 5 software. The values were expressed as a percentage of migration. See Saxena N K, Sharma D, Ding X, et al. Concomitant activation of the JAK/STAT, PI3K/AKT, and ERK signaling is involved in leptin-mediated promotion of invasion and migration of hepatocellular carcinoma cells. Cancer Res. 2007; 67: 2497-2507.

The subject of the next data set is HepG2.2.15 cells. The data set can be described thus: Wound healing assay. The data set is classed as cell-based, human. The conditions noted are these: scratched monolayer of HepG2.2.15 cells, 96 hours, vs vehicle control. Here is the method:
as §2

The subject of data set [1] is p27, p21, p57, p53, cyclin D1, cyclin E2, MKI67, c-Myc, CdC6. The data set can be described thus: Quantitative real-time PCR gene expression in orthotopic HCC tumors. Type of data set: in vivo. The conditions noted are these: orthotopic HCC mice. Here is the method:
Total RNA was extracted using the RNeasy Mini kit according to the manufacturer's instructions (Qiagen, Germantown, Md.). RNA was quantified using Nanodrop Lite (Thermo Scientific, Wilmington, Del.). Complementary DNA (cDNA) synthesis was performed by reverse transcription of total RNA using the High Capacity cDNA Reverse Transcription Kit (Thermo Fisher Scientific, Rockford, Ill.). Real-time quantitative PCR was employed using the LightCycler 480 Instrument II (Roche Diagnostics Corporation, Indianapolis, Ind.) using TaqMan Fast Advanced Master Mix and TaqMan Gene Expression probes for human p27, cyclin E2, cyclin A2, CdC6, MKI67, cyclin D1, p21, p57, c-Myc and p53 (Thermo Fisher Scientific). The expression of target genes was normalized to the housekeeping gene GAPDH in each sample. All samples were run in duplicate and the relative gene expression calculated as 2−ΔCT was expressed as fold increase over control samples.

For data set [2] the following is noted: phase I, cited from earlier work.
The next data set relates to alpha-fetoprotein (AFP). The data set can be described thus: Serum AFP in orthotopic HCC mouse model. The conditions noted are these: milciclib 30 mg/kg, sorafenib 20 mg/kg, oral, vs vehicle. The data set is classed as in vivo, mice. As for the experimental part:
as §1
Mouse experiments were performed in accordance with the guidelines approved by the Institutional Animal Care and use committee of Washington Biotechnology Inc (Baltimore, Md.) where the studies were conducted. (FIG. 66) Test agents were dissolved in chremophor/ethanol (1:1) to make a 5× stock solution and diluted in water when used. MHCC97H human liver cells (5×106) in PBS were mixed with 20% Matrigel and then inoculated orthotopically into the right flank of female Balb/c nude mice. Seven days after cell inoculation, the mice were randomly allocated to either the treatment group (n=12) or the control group (n=12) based on the levels of AFP. The daily animal inspection was conducted for general appearance and tumor growth. […]

Regarding `CNC(=O)c1nn(C)c2c1C(C)(C)Cc1cnc(Nc3ccc(N4CCN(C)CC4)cc3)nc1-2` [MILCICLIB, N,1,4,4-tetramethyl-8-((4-(4-methylpiperazin-1-yl)phenyl)amino)-4,5-dihydro-1H-pyrazolo[4,3-h]quinazoline-3-carboxamide], in the data set on Alphafetoprotein (AFP), the AFP levels result is given as “Appreciably lower”. Also, the “expression of miR-221 and miR-222” value in the data set with miR-221 and miR-222 is “significantly reduced”. For the same molecule, the cell migration result in the data set with MHCC97L cells and in the data set with HepG2.2.15 cells was “reduced cell migration” in each case. The “expression of cell proliferation genes such as MKI67, cdc6, c-Myc” value in data set [1] (oral administration) is reported as “downregulated”. The “expression of cyclins such as cyclin E2 and cyclin D1” value in data set [1] (oral administration) is reported as “downregulated”. In addition, the “expression of tumor suppressors such as p27, p21, p53 and p57” value in data set [1] (oral treatment) was “upregulated”. In addition, the tolerability entry in data set [2] (oral treatment, patients with advanced solid malignancies) is listed as “well-tolerated”. Moreover, in data set [2] (oral), the RP2D is 150 mg/day. Besides, the major toxicity profile result in data set [2] (reversible upon treatment suspension) is “tremors and gastrointestinal toxicity”. Besides, the “serum AFP levels” value in the data set with alpha-fetoprotein (AFP) is recorded as “Significantly lower”.
